# Measurements published in patent US20250339489A1, “COMPOSITION FOR SUPPRESSING HAIR LOSS OR PROMOTING HAIR GROWTH CONTAINING PEPTIDE” (AMOREPACIFIC CORPORATION, priority 2024, published 2025).
# System: Human dermal papilla cells (HDPCs)
# Assay: Activation of hair dermal papilla cell proliferation (CCK8 assay, absorbance at 450 nm)
# Type: cell-based
# Conditions: serum-free DMEM, peptide at 0.1 μM, 1 μM and 10 μM, 72 hours
# Experimental: Human dermal papilla cells (HDPCs) were attached to a 96-well plate at 2,000 cells per well, and then cultured using DMEM medium (Sigma Aldrich) containing 10% FBS and 1% penicillin/streptomycin (P/S; Sigma Aldrich) for 24 hours, the medium was then exchanged with serum-free DMEM, and diluted samples were treated with a GPK, GPS, GPA, GQK, or PO peptide at a concentration of each of 0.1 μM, 1 μM, and 10 μM, for 72 hours, and then treated with a CCK8 reagent for 1 hour to measure the absorbance at 450 nm using a microplate reader (TECAN), and the results are shown in FIGS. 1 to 5 (FIG. 1: GPK, FIG. 2: GPS, FIG. 3: GPA, FIG. 4: GQK, and FIG. 5: PO). As a positive control (PC), a 5% fetal bovine serum (FBS) treated group was used.
row,Substance,cell proliferation compared to the untreated control
1,Gly-Gln-Lys [GQK],significantly increased
2,Gly-Pro-Ala [GPA],significantly increased
3,Gly-Pro-Lys [GPK],significantly increased
4,Gly-Pro-Ser [GPS],significantly increased
5,Pro-Hyp [PO],significantly increased
